Test results from patent US8729082B2, “Substituted imidazoquinoxalines” (Bayer Intellectual Property GmbH, priority 2009, dated 2014).

Biological target: T1, human kinase Mps-1 (Homo sapiens, UniProt P33981)
T1 construct: N-terminally GST-tagged human full length recombinant Mps-1 kinase; purchased Invitrogen, Karslruhe, Germany PV4071
T1 sequence (P33981 1-857): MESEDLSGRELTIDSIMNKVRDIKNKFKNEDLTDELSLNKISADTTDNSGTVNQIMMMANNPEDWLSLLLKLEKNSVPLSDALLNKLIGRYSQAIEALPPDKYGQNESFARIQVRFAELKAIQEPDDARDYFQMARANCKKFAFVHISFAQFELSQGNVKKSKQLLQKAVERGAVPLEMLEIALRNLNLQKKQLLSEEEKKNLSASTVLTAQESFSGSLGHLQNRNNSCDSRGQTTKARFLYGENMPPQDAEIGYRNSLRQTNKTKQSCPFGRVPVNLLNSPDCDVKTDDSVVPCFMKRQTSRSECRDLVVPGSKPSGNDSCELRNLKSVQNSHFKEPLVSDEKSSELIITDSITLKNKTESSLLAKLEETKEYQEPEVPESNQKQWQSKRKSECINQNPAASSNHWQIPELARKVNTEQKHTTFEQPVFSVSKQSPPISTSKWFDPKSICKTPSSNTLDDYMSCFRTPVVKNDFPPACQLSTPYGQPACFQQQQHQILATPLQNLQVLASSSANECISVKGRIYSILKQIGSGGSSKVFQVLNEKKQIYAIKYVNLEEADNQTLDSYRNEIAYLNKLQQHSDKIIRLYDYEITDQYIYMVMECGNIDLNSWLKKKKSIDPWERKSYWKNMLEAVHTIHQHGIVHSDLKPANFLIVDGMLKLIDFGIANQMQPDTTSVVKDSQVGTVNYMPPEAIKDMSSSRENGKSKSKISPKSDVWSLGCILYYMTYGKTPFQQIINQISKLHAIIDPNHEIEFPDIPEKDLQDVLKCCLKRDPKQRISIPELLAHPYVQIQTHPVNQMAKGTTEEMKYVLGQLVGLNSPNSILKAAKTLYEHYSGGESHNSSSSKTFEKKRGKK
Experiment: Mps-1 kinase assay (HTRF)
Format: biochemical
Conditions: lowATP; mean; read-out: Mps1 lowATP mean IC50
Summary of the method: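 HTRF readout: EDTA-stopped reactions incubated 1 h with europium anti-phospho(Ser/Thr) antibody and streptavidin-XLent, emission ratio 665/620 nm after 350 nm excitation. Kinase step: compound pre-bound 15 min to ~1 nM GST-Mps-1, then 60 min at 22 °C with ATP and biotin-peptide substrate; inhibition scaled between no-inhibitor (0%) and no-enzyme (100%) controls.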

| SMILES | IC50 [nM] |
| --- | --- |
| Cn1nccc1CNc1nc2cc(C#N)ccc2n2c(-c3ccc(C(=O)NC4CC4)c(Cl)c3)cnc12 [Example 2-252, 2-chloro-4-(7-cyano-4-{[(1-methyl-1H-pyrazol-5-yl)methyl]amino}imidazo[1,2-a]quinoxalin-1-yl)-N-cyclopropylbenzamide] | 852 |
| CNC(=O)Nc1ccc(-c2cnc3c(NCC4CC4)nc4cc(C)c(C)cc4n23)cc1 [Example 2-170, 1-(4-{4-[(cyclopropylmethyl)amino]-7,8-dimethylimidazo[1,2-a]quinoxalin-1-yl}phenyl)-3-methylurea] | 312 |
| N#Cc1ccc2c(c1)nc(NCCO)c1ncc(-c3ccc(C(=O)NC4CC4)c(Cl)c3)n12 [Example 2-235, 2-chloro-4-{7-cyano-4-[(2-hydroxyethyl)amino]imidazo[1,2-a]quinoxalin-1-yl}-N-cyclopropylbenzamide] | 3450 |
| O=C(NC1CC1)c1ccc(-c2cnc3c(NCc4ccc(F)cc4)nc4cc(F)c(F)cc4n23)cc1 [Example 2-95, N-cyclopropyl-4-{7,8-difluoro-4-[(4-fluorobenzyl)amino]imidazo[1,2-a]quinoxalin-1-yl}benzamide] | 75.8 |
| CNC(=O)Nc1ccc(-c2cnc3c(NCCNC(C)=O)nc4cc(F)c(F)cc4n23)cc1 [Example 2-118, N-{2-[(7,8-difluoro-1-{4-[(methylcarbamoyl)amino]phenyl}imidazo[1,2-a]quinoxalin-4-yl)amino]ethyl}acetamide] | 12700 |
| O=C(NC1CC1)c1ccc(-c2cnc3c(NCc4cccs4)nc4ccc(F)cc4n23)cc1 [Example 2-48, N-cyclopropyl-4-{8-fluoro-4-[(thiophen-2-ylmethyl)amino]imidazo[1,2-a]quinoxalin-1-yl}benzamide] | 40.3 |
| O=C(NC1CC1)c1ccc(-c2cnc3c(NCC4CC4)nc4ccc(F)cc4n23)cc1 [Example 2-52, N-cyclopropyl-4-{4-[(cyclopropylmethyl)amino]-8-fluoroimidazo[1,2-a]quinoxalin-1-yl}benzamide] | 48.2 |

Now from value to compound:

| IC50 [nM] | SMILES |
| --- | --- |
| 5210 | CNC(=O)Nc1ccc(-c2cnc3c(NCc4ccco4)nc4cc(C#N)ccc4n23)cc1 [Example 2-231, 1-(4-{7-cyano-4-[(furan-2-ylmethyl)amino]imidazo[1,2-a]quinoxalin-1-yl}phenyl)-3-methylurea] |
| 6460 | CC(C)CNc1nc2ccccc2n2c(-c3ccc4cn[nH]c4c3)cnc12 [Example 1-49, 1-(1H-indazol-6-yl)-N-(2-methylpropyl)imidazo[1,2-a]quinoxalin-4-amine] |
| 180 | COCCNc1nc2ccccc2n2c(-c3ccc(C(=O)NC4CC4)cc3)cnc12 [Example 2-12, N-cyclopropyl-4-{4-[(2-methoxyethyl)amino]imidazo[1,2-a]quinoxalin-1-yl}benzamide] |
| 3470 | CNC(=O)Nc1ccc(-c2cnc3c(NCCCO)nc4cc(C#N)ccc4n23)cc1 [Example 2-227, 1-(4-{7-cyano-4-[(3-hydroxypropyl)amino]imidazo[1,2-a]quinoxalin-1-yl}phenyl)-3-methylurea] |
| 9900 | CC(C)CNc1nc2ccccc2n2c(-c3ccc4c(c3)OCO4)cnc12 [Example 1-28, 1-(1,3-benzodioxol-5-yl)-N-(2-methylpropyl)imidazo[1,2-a]quinoxalin-4-amine] |
| 3700 | CNC(=O)Nc1ccc(-c2cnc3c(NCc4ccncc4)nc4ccc(F)cc4n23)cc1 [Example 2-69, 1-(4-{8-fluoro-4-[(pyridin-4-ylmethyl)amino]imidazo[1,2-a]quinoxalin-1-yl}phenyl)-3-methylurea] |
| 469 | CNC(=O)Nc1ccc(-c2cnc3c(NCc4cccs4)nc4cc(C)c(C)cc4n23)cc1 [Example 2-167, 1-(4-{7,8-dimethyl-4-[(thiophen-2-ylmethyl)amino]imidazo[1,2-a]quinoxalin-1-yl}phenyl)-3-methylurea] |
| 134 | CCNc1nc2cc(C)c(C)cc2n2c(-c3ccc(NC(=O)NC)cc3)cnc12 [Example 2-168, 1-{4-[4-(ethylamino)-7,8-dimethylimidazo[1,2-a]quinoxalin-1-yl]phenyl}-3-methylurea] |
